Source: US20250215029A1 (Recludix Pharma, Inc., priority 2022, published 2025)
Like-named read-outs stand apart in the source and are kept apart here.

Assays:
[1] = biological target: T1, Recombinant STAT3 protein (STAT3 (G127-I722)) (Homo sapiens, UniProt P40763); assay: STAT3 Fluorescence Polarization (FP) Assay; assay type: binding; conditions: probe 5-FAM-GpYLPQTV-NH2 2 nM, 45-minute incubation
T1 construct: Recombinant STAT3 protein (STAT3 (G127-I722))
How it was run: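 Displacement of a 2 nM 5-FAM-labelled pY peptide (GpYLPQTV) from 25 nM recombinant STAT3 (G127-I722) was monitored by fluorescence polarization. Incubation lasted 45 min at room temperature in pH 7.4 HEPES buffer containing 1% DMSO.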

[2] = biological target: T2, Recombinant STAT6 protein (STAT6 (W123-T658)) (Homo sapiens, UniProt P42226); assay: STAT6 Fluorescence Polarization (FP) Assay; assay type: binding; conditions: 45-minute incubation
T2 construct: Recombinant STAT6 protein (STAT6 (W123-T658))
T2 sequence (P42226 123-658): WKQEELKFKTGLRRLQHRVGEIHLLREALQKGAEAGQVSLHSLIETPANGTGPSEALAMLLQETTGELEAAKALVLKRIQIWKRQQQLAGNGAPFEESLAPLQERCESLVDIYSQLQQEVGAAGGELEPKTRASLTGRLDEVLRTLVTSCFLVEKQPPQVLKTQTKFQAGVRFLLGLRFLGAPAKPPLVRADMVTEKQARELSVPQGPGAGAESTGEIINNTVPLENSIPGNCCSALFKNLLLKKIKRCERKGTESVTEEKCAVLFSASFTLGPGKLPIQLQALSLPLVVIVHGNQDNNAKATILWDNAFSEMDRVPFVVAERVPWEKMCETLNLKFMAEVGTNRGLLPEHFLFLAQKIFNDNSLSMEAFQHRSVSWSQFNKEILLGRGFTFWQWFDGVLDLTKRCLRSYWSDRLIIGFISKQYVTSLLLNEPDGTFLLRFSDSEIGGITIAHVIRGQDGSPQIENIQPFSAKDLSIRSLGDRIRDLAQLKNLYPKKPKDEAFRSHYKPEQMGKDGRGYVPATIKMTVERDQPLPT
How it was run: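 Recombinant STAT6 (W123-T658) at 250 nM mixed with 2 nM 5-FAM phosphotyrosine peptide probe in HEPES pH 7.4 buffer with DTT, 1% DMSO final, added to serially diluted compounds. FP (mP) read after 45 min at room temperature; IC50 by nonlinear regression vs log concentration.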

[3] = STAT3 25 nM, read-out: STAT3 (FP assay IC50)
[4] = STAT6 250 nM, probe 5-FAM-Ap[…]-NH2 2 nM, read-out: STAT6 (FP assay IC50)
[5] = STAT3 (G127-I722) 25 nM, read-out: STAT3 (FP assay IC50 class)
[6] = STAT6 (W123-T658) 250 nM, probe 5-FAM-Ap[…]-NH2 2 nM, read-out: STAT6 (FP assay IC50 class)

T1 sequence (P40763 127-722): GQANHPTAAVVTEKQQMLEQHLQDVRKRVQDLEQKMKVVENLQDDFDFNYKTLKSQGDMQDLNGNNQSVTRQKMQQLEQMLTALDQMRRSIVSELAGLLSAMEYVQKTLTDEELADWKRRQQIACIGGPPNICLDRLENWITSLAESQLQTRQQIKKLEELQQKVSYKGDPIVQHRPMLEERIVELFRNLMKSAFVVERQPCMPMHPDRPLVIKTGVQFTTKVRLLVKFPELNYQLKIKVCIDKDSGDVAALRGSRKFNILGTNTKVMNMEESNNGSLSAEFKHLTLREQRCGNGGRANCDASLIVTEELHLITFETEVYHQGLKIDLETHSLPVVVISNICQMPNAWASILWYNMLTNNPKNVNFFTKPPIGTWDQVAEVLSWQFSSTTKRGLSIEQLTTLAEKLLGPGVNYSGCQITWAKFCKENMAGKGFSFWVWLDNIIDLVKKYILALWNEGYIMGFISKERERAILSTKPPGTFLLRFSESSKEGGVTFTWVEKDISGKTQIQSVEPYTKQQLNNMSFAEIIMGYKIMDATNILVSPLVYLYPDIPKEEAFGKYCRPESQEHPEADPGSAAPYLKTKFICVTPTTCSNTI

SMILES	IC50 [1, 3] [nM]	IC50 [2, 4] [nM]	IC50 [1, 5] [nM]	IC50 [2, 6] [nM]	IC50 ([2]; STAT6 (W123-T658) 250 nM, probe 5-FAM-ApYKPFQDLI-NH2 2 nM, read-out: STAT6 (FP assay IC50 class)) [nM]
CC[C@@H]1CC[C@H](NC(=O)c2cc3cc([C@H](F)P(=O)(O)O)ccc3s2)C(=O)N2[C@H](CC[C@H]2C(=O)N2CC(c3cnccc3N3CCC3)C2)C1 [Compound 931, ((R)-(2-(((3S,6S,9R,10aR)-3-(3-(4-(azetidin-1-yl)pyridin-3-yl)azetidine-1-carbonyl)-9-ethyl-5-oxodecahydropyrrolo [1,2-a]azocin-6-yl)carbamoyl)benzo [b]thiophen-5-yl)fluoromethyl) phosphonic acid]			< 100	300 to 3000	
N#C[C@H]1[C@H](c2ccccc2)CN(C(=O)[C@@H]2CC[C@@H]3CCCC[C@H](NC(=O)c4cc5cc(C(F)P(=O)(O)O)ccc5s4)C(=O)N32)C12CC2 (relative stereo) [Compound 229, ((2-(((3S,6S,10aS)-3-((rel-trans)-7-cyano-6-phenyl-4-azaspiro[2.4]heptane-4-carbonyl)-5-oxodecahydropyrrolo[1,2-a]azocin-6-yl)carbamoyl)benzo[b]thiophen-5-yl)fluoromethyl)phosphonic acid]			1000 to 10000	≤ 300	
CC[C@H]1CC[C@H](NC(=O)c2cc3cc([C@H](F)P(=O)(O)O)ccc3s2)C(=O)N2[C@H](CC[C@H]2C(=O)N2CC(c3cnccc3N3CCC3)C2)C1 [Compound 938, ((R)-(2-(((3S,6S,9S,10aR)-3-(3-(4-(azetidin-1-yl)pyridin-3-yl)azetidine-1-carbonyl)-9-ethyl-5-oxodecahydropyrrolo [1,2-a]azocin-6-yl)carbamoyl)benzo [b]thiophen-5-yl)fluoromethyl) phosphonic acid]			< 100	300 to 3000	
CCc1ccncc1C1CN(C(=O)[C@@H]2CC[C@@H]3CCC[C@H](NC(=O)c4cc5cc(CP(=O)(O)O)ccc5s4)C(=O)N32)C1 [Compound 503, ((2-(((3S,6S,9aS)-3-(3-(4-ethylpyridin-3-yl)azetidine-1-carbonyl)-5-oxooctahydro-1H-pyrrolo[1,2-a]azepin-6-yl)carbamoyl)benzo[b]thiophen-5-yl)methyl)phosphonic acid]			100 to 1000	3000 to 30000	
O=C(N[C@H]1CCC[C@H]2CC[C@@H](C(=O)N3CC(c4cccnc4)C3)N2C1=O)c1cc2cc(CP(=O)(O)O)ncc2s1 [Compound 574, ((2-(((3S,6S,9aS)-5-oxo-3-(3-(pyridin-3-yl)azetidine-1-carbonyl)octahydro-1H-pyrrolo[1,2-a]azepin-6-yl)carbamoyl)thieno[2,3-c]pyridin-5-yl)methyl)phosphonic acid]			1000 to 10000	3000 to 30000	
N#C[C@@H]1CN(C(=O)[C@@H]2CC[C@@H]3CCCC[C@H](NC(=O)c4ccc5ccc(C(F)P(=O)(O)O)cc5c4)C(=O)N32)C[C@H]1c1ccccc1 (single isomer, unassigned) [Compound 226]			1000 to 10000	≤ 300	
C[C@@H]1[C@@H](c2cccnc2)CN1C(=O)[C@@H]1CC[C@@H]2CCC[C@H](NC(=O)c3cc4cc(C(F)P(=O)(O)O)ccc4s3)C(=O)N21 (stereo partly drawn) [Compound 737, (fluoro(2-(((3S,6S,9aS)-3-((2R,3S)-2-methyl-3-(pyridin-3-yl)azetidine-1-carbonyl)-5-oxooctahydro-1H-pyrrolo[1,2-a]azepin-6-yl)carbamoyl)benzo [b]thiophen-5-yl)methyl) phosphonic acid Or (fluoro(2-(((3S,6S,9aS)-3-((2S,3R)-2-methyl-3-(pyridin-3-yl)azetidine-1-carbonyl)-5-oxooctahydro-1H-pyrrolo[1,2-a]azepin-6-yl)carbamoyl)benzo [b]thiophen-5-yl)methyl) phosphonic acid]			< 100		3000 to 30000
N#C[C@H]1CN(C(=O)[C@@H]2CC[C@@H]3CCCC[C@H](NC(=O)c4cc5cc(C(F)(F)P(=O)(O)O)ccc5s4)C(=O)N32)C[C@@H]1c1ccc2cn[nH]c2c1 (racemic) [Compound 99, ((2-(((3S,6S,10aS)-3-(rel-(trans)-3-cyano-4-(1H-indazol-6-yl)pyrrolidine-1-carbonyl)-5-oxodecahydropyrrolo [1,2-a]azocin-6-yl)carbamoyl)benzo[b]thiophen-5-yl)difluoromethyl) phosphonic acid]	100 to 1000	300 to 3000			
CN1CCN(c2ccncc2C2CN(C(=O)[C@@H]3CC[C@@H]4CCC[C@H](NC(=O)c5cc6cc([C@@H](F)P(=O)(O)O)ccc6s5)C(=O)N43)C2)C1=O [Compound 851, ((S)-fluoro(2-(((3S,6S,9aS)-3-(3-(4-(3-methyl-2-oxoimidazolidin-1-yl)pyridin-3-yl)azetidine-1-carbonyl)-5-oxooctahydro-1H-pyrrolo[1,2-a]azepin-6-yl)carbamoyl)benzo [b]thiophen-5-yl)methyl) phosphonic acid]			100 to 1000	3000 to 30000	
NC(=O)Cc1cc(-c2ccccc2)ccc1NC(=O)[C@@H]1CCC2CCC[C@H](NC(=O)c3cc4cc(C(F)(F)P(=O)(O)O)ccc4s3)C(=O)N21 (stereo partly drawn) [Compound 1122, ((2-(((35,6S)-3-((3-(2-amino-2-oxoethyl)-[1,1′-biphenyl]-4-yl)carbamoyl)-5-oxooctahydro-1H-pyrrolo[1,2-a]azepin-6-yl)carbamoyl)benzo[b]thiophen-5-yl)difluoromethyl)phosphonic acid]			100 to 1000	3000 to 30000	
N#C[C@@H]1CN(C(=O)[C@@H]2CC[C@@H]3CCC[C@@H](C4CC4)[C@H](NC(=O)c4cc5cc(C(F)(F)P(=O)(O)O)ccc5s4)C(=O)N32)C[C@H]1c1ccccc1 (single isomer, unassigned) [Compound 234]			1000 to 10000	≤ 300	

Now from value to compound, other results behind:

IC50 [1, 3] [nM]	IC50 [2, 4] [nM]	IC50 [1, 5] [nM]	IC50 [2, 6] [nM]	SMILES	IC50 ([2]; STAT6 (W123-T658) 250 nM, probe 5-FAM-ApYKPFQDLI-NH2 2 nM, read-out: STAT6 (FP assay IC50 class)) [nM]
< 100	300 to 3000			O=C(N[C@H]1CC/C=C\[C@H]2CC[C@@H](C(=O)N3CC(c4cccnc4)C3)N2C1=O)c1cc2cc(C(F)(F)P(=O)(O)O)ccc2s1 [Compound 26, (difluoro(2-(((3S,6S,10aR,Z)-5-oxo-3-(3-(pyridin-3-yl)azetidine-1-carbonyl)-1,2,3,5,6,7,8,10a-octahydropyrrolo[1,2-a]azocin-6-yl)carbamoyl)benzo[b]thiophen-5-yl)methyl) phosphonic acid]	
		< 100	300 to 3000	COCC1(c2ccccc2)CN(C(=O)[C@@H]2CC[C@@H]3CCC[C@H](NC(=O)c4cc5cc(C(F)(F)P(=O)(O)O)ccc5s4)C(=O)N32)C1 [Compound 777, (difluoro(2-(((3S,6S,9aS)-3-(3-(methoxymethyl)-3-phenylazetidine-1-carbonyl)-5-oxooctahydro-1H-pyrrolo[1,2-a]azepin-6-yl)carbamoyl)benzo [b]thiophen-5-yl)methyl) phosphonic acid]	
< 100	3000 to 30000			O=C(N[C@H]1CCC2(CC2)C[C@H]2CC[C@@H](C(=O)N3CC(C(=O)N4CCOCC4)C3)N2C1=O)c1cc2cc(C(F)(F)P(=O)(O)O)ccc2s1 [Compound 114, (difluoro(2-(((3′S,6′S, 10aR)-3′-(3-(morpholine-4-carbonyl)azetidine-1-carbonyl)-5′-oxooctahydro-1′H-spiro [cyclopropane-1,9′-pyrrolo[1,2-a]azocin]-6′-yl)carbamoyl)benzo[b]thiophen-5-yl)methyl) phosphonic acid]	
		< 100	3000 to 30000	CO[C@@H]1CCN(c2ccncc2C2CN(C(=O)[C@@H]3CC[C@@H]4CCC[C@H](NC(=O)c5cc6cc(CP(=O)(O)O)ccc6s5)C(=O)N43)C2)C1 [Compound 688, ((2-(((3S,6S,9aS)-3-(3-(4-((R)-3-methoxypyrrolidin-1-yl)pyridin-3-yl)azetidine-1-carbonyl)-5-oxooctahydro-1H-pyrrolo[1,2-a]azepin-6-yl)carbamoyl)benzo [b]thiophen-5-yl)methyl) phosphonic acid]	
		< 100	3000 to 30000	CC(C)Oc1ccncc1C1CN(C(=O)[C@@H]2CC[C@@H]3CCC[C@H](NC(=O)c4cc5cc(C(F)P(=O)(O)O)ccc5s4)C(=O)N32)C1 (stereo partly drawn) [Compound 612, (fluoro(2-(((3S,6S,9aS)-3-(3-(4-isopropoxypyridin-3-yl)azetidine-1-carbonyl)-5-oxooctahydro-1H-pyrrolo[1,2-a]azepin-6-yl)carbamoyl)benzo [b]thiophen-5-yl)methyl) phosphonic acid]	
